From ChEMBL document CHEMBL1743201, “Casarett and Doull's Toxicology The Basic Science of Poisons, 7th edition” (2008) come the findings set out here.

Common to all, as to format: ADME
Data set [1] addresses T1, UDP-glucuronosyltransferase 2B4 (Homo sapiens, UniProt P06133).
T1 sequence (P06133 whole entry): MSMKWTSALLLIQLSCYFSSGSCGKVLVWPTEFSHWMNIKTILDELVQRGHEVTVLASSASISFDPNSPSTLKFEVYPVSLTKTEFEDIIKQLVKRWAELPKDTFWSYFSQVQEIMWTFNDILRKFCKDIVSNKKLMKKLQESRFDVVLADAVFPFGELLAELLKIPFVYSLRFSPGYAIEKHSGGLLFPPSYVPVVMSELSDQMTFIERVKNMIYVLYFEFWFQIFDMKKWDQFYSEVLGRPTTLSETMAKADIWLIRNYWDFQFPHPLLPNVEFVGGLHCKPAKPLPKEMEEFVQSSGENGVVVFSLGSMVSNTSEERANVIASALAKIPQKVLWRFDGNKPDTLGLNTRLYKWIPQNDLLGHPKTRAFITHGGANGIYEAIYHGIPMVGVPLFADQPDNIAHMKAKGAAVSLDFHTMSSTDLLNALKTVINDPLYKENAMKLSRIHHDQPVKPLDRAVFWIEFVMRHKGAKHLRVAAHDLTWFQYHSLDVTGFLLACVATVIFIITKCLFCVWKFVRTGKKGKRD
Briefly: Substrate of human UDP-glucuronosyltransferase UGT2B4.

Data set [2] deals with T2, UDP-glucuronosyltransferase 2B7 (Homo sapiens, UniProt P16662).
T2 sequence (P16662 whole entry): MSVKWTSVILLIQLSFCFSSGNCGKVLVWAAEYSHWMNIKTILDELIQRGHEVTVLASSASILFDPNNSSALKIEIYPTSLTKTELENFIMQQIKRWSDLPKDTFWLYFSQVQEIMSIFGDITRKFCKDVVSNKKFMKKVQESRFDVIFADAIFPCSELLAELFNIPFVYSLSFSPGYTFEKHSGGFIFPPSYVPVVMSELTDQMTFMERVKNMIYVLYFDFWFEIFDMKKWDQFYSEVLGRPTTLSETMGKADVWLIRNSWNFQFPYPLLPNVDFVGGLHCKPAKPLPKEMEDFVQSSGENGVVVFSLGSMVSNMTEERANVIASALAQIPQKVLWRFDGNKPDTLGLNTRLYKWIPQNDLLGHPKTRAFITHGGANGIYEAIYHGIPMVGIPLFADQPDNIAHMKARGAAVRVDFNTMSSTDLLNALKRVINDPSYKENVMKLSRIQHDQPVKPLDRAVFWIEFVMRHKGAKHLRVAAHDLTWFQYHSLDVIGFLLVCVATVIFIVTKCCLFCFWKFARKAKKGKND
Briefly: Substrate of human UDP-glucuronosyltransferase UGT2B7.

The target in data set [3] is T3, UDP-glucuronosyltransferase 1A1 (Homo sapiens, UniProt P22309).
T3 sequence (P22309 whole entry): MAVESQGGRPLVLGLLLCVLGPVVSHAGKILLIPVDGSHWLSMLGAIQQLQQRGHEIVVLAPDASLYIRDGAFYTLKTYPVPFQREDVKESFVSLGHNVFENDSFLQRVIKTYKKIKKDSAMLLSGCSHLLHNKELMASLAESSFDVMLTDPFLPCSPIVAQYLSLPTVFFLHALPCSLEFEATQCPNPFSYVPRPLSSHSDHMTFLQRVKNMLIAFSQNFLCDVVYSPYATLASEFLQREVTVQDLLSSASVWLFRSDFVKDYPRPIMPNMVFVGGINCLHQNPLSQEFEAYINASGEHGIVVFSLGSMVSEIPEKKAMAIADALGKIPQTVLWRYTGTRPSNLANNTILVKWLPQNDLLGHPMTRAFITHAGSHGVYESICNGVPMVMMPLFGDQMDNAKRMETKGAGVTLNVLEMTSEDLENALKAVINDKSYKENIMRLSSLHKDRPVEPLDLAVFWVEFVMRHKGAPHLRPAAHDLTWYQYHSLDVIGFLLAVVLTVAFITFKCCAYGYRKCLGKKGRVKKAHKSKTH
Briefly: Substrate of human UDP-glucuronosyltransferase UGT1A1.

Data set [4] has as its target T4, Glutathione S-transferase A4 (Homo sapiens, UniProt O15217).
T4 sequence (O15217 whole entry): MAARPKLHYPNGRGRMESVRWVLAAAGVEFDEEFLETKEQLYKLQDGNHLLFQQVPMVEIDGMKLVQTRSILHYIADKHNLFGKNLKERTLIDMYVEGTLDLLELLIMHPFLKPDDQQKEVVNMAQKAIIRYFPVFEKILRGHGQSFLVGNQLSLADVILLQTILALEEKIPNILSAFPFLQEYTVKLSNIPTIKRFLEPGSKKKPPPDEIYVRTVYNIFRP
Briefly: Substrates for human cytosolic glutathione transferase GSTA4.

For data set [5], the target named is T5, UDP-glucuronosyltransferase 1A7 (Homo sapiens, UniProt Q9HAW7).
T5 sequence (Q9HAW7 whole entry): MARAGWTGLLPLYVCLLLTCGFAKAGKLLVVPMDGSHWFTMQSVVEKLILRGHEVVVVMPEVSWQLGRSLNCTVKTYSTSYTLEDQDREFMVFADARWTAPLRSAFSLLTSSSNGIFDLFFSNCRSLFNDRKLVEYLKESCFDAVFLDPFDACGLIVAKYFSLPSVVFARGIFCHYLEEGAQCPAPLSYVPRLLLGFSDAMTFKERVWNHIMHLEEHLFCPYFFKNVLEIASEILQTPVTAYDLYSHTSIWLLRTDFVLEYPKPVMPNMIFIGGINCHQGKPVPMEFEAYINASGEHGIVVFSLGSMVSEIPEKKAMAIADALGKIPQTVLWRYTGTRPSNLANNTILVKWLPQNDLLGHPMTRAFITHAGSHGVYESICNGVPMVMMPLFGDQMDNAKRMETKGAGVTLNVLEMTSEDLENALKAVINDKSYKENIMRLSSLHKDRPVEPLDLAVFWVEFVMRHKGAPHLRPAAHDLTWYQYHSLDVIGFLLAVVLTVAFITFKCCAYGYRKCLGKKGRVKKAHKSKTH
Briefly: Substrate of human UDP-glucuronosyltransferase UGT1A7.

A further data set addresses T6, Sulfotransferase 1E1 (Homo sapiens, UniProt P49888).
T6 sequence (P49888 whole entry): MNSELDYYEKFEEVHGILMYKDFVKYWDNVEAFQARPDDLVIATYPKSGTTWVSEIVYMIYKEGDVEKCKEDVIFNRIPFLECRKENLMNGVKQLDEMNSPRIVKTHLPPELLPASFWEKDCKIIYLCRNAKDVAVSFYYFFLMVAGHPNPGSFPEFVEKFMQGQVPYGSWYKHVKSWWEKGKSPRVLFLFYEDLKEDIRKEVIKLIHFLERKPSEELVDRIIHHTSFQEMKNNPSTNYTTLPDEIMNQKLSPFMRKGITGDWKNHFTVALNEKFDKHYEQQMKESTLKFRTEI
Kind of data set: Major substrate of human cytosolic sulfotransferase SULT1E1.

Data set [6] addresses T7, UDP-glucuronosyltransferase 1A6 (Homo sapiens, UniProt P19224).
T7 sequence (P19224 whole entry): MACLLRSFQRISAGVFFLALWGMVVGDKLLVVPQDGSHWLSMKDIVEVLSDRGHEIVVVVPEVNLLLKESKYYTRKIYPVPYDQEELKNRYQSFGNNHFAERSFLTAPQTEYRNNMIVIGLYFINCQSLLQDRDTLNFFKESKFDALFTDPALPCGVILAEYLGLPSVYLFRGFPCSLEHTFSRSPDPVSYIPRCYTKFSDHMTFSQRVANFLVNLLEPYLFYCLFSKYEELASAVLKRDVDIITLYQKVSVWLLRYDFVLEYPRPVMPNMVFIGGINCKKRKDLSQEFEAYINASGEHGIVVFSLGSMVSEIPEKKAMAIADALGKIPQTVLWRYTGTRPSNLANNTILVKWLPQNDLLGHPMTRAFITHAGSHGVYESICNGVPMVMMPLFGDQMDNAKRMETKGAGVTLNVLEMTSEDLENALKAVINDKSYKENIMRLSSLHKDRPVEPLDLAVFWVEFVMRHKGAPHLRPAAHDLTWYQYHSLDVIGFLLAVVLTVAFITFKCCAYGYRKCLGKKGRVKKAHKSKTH
Kind of data set: Substrate of human UDP-glucuronosyltransferase UGT1A6.

Data set [7] has as its target T8, UDP-glucuronosyltransferase 2B15 (Homo sapiens, UniProt P54855).
T8 sequence (P54855 whole entry): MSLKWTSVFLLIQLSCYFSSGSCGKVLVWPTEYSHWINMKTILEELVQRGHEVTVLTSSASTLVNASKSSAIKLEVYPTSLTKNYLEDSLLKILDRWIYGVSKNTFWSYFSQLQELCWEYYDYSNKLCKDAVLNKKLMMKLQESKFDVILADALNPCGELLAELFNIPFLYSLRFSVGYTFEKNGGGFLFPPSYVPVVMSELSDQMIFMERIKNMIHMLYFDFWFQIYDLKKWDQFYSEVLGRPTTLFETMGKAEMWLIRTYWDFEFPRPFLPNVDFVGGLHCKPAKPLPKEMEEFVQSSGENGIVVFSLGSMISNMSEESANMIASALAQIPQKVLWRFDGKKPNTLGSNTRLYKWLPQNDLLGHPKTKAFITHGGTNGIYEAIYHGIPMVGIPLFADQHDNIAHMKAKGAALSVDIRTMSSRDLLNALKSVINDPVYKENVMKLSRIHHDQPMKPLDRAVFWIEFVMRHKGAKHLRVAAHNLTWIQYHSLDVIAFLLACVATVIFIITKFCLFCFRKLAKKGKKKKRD
Kind of data set: Substrate of human UDP-glucuronosyltransferase UGT2B15.

For data set [8], the target named is T9, UDP-glucuronosyltransferase 1A8 (Homo sapiens, UniProt Q9HAW9).
T9 sequence (Q9HAW9 whole entry): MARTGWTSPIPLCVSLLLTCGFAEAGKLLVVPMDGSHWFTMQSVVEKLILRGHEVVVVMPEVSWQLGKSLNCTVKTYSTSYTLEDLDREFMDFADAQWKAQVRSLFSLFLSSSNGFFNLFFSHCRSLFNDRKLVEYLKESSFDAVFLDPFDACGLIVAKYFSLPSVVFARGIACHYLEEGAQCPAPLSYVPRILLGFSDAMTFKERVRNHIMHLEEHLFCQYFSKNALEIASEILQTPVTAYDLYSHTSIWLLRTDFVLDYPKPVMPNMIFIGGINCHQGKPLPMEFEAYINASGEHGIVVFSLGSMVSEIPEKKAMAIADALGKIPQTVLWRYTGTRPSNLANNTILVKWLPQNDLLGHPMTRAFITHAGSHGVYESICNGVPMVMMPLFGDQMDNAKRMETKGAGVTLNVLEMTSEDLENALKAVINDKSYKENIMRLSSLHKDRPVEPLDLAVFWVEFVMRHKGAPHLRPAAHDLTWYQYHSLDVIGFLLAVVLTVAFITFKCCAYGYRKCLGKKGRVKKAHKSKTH
Kind of data set: Substrate of human UDP-glucuronosyltransferase UGT1A8.

The target in data set [9] is T10, UDP-glucuronosyltransferase 1A10 (Homo sapiens, UniProt Q9HAW8).
T10 sequence (Q9HAW8 whole entry): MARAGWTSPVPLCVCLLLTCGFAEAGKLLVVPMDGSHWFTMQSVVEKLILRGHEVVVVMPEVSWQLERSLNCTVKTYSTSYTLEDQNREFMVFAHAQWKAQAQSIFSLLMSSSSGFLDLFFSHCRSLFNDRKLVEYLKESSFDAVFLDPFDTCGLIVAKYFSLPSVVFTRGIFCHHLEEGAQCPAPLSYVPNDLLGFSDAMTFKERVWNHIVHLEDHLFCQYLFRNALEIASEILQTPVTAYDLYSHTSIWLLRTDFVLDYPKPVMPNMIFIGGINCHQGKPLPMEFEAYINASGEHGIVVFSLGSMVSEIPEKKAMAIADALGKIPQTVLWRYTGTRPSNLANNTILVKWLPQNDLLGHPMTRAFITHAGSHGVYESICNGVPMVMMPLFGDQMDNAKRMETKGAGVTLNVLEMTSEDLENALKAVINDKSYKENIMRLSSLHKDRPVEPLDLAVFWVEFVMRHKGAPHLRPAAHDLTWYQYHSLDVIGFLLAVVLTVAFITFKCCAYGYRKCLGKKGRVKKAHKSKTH
Briefly: Substrate of human UDP-glucuronosyltransferase UGT1A10.

For `COc1ccccc1OCCNCC(O)COc1cccc2[nH]c3ccccc3c12` (centres undefined) [CARVEDILOL], the Activity result in data set [1], in [2] and in [3] was “Substrate” throughout.
As for `C[C@H](CCC(=O)O)[C@H]1CC[C@H]2[C@@H]3C[C@H](O)[C@@H]4C[C@H](O)CC[C@]4(C)[C@H]3CC[C@]12C` [HYODEOXYCHOLIC_ACID], the Activity entry in data set [1] is “Substrate”.
`CCCCCC(O)/C=C/C=O` (centres undefined) [4-HYDROXYNON-2-ENAL]: the Activity result in [4] is reported as “Substrate”.
In the case of `C[C@]12CC[C@@H]3c4ccc(O)c(O)c4CC[C@H]3[C@@H]1CCC2=O`, the Activity result (in data set [5]; at Sulfotransferase 1E1) was “Substrate” throughout.
For `CCc1c2c(nc3ccc(O)cc13)-c1cc3c(c(=O)n1C2)COC(=O)[C@]3(O)CC` [7-ETHYL-10-HYDROXYCAMPTOTHECIN], the Activity result in [6], in data set [7] and in [5] was “Substrate” throughout.
As to `C[C@]12CC[C@@H](O)C[C@@H]1CC[C@@H]1[C@@H]2CC[C@]2(C)C(=O)CC[C@@H]12` [ANDROSTERONE], in data set [1], the Activity result is recorded as “Substrate”.
For `COc1c(C)c2c(c(O)c1C/C=C(\C)CCC(=O)O)C(=O)OC2` [MYCOPHENOLIC ACID], the Activity result in [8], in data set [5] and in data set [9] was “Substrate” in each case.
As to `CCCCCCC(O)/C=C/C=O` (centres undefined), the Activity entry in data set [4] is “Substrate”.
Consider `C[C@]12CC[C@@H]3c4ccc(O)cc4CC[C@H]3[C@@H]1C[C@@H](O)[C@@H]2O` [ESTRIOL], for which the Activity result in data set [1] and in [7] was “Substrate” each time.
`COc1ccc2c3c1O[C@H]1[C@@H](O)C=C[C@H]4[C@@H](C2)N(C)CC[C@@]341` [CODEINE]: the Activity result in data set [1] was “Substrate”.
As for `C=C(CC)C(=O)c1ccc(OCC(=O)O)c(Cl)c1Cl` [ETHACRYNIC ACID], the Activity result in data set [4] is “Substrate”.
